Read-outs that look alike come from different tables or passages of the source.
Assays:
HBV [1] = settings: racemic compounds; read-out: EC50 HBV in vitro; cited from earlier work
[2] = system: VSV-G pseudotyped HIV NL4-3; assay: microbe, parasite or virus in culture; type: cell-based; settings: for EC50: Human immunodeficiency virus 1, NL43, CCRF-CEM, 72 h, read-out: HIV EC50
HBV [3] = assay: HBV replication assay with HepG2.117 cells (qPCR of HBV DNA in supernatant); type: cell-based, Hepatitis B virus; settings: for EC50: Hepatitis B virus, HepG2.117 cells, 96 h, mean ± SD (n); for anti-HBV activity: cell-based assay
[4] = Cell cytotoxicity against HepG2 cells (CellTiter-Glo, 96 h); type: cell-based, human; settings: human
Experimental: (§1) In parallel, cell cytotoxicity (CC50) against HepG2 cells was measured using a luminescent cell viability assay to determine the number of viable cells in the culture based on quantitation of the adenosine triphosphate (ATP) present after a 4-day incubation period. On the first day, HepG2 cells were seeded at 15,000 cells per 100 µL per well with assay media containing DEME (Corning, cat#10-013-CV), 3% FBS (Coning, cat#35-011-CV), 1× penicillin/streptomycin and 1× Non-essential Amino Acid in Biocoat collagen-coated 96-well flat bottom plates. Cells were incubated in a 37 °C, 5% CO2 incubator for 4 h before compound dosing. The compound dilution and dosing procedure were identical to that for the determination of anti-HBV activity. After 96 h incubation, CellTiter-Glo® reagent (Promega, Madison, WI, USA) was added to each well and incubated for 10 min at RT. Luminescence was measured on a Victor X3 multi-label plate reader. Cell viability is normalized to the level observed in the absence of an inhibitor, which was defined as 100%.

in vitro = settings: human
HBV polymerase = molecular target: T1, HBV polymerase (Hepatitis B virus genotype D subtype ayw, UniProt P03156); assay: HBV polymerase RdDp activity assay; type: biochemical; settings: read-out: HBV pol IC50
T1 construct: Recombinant HBV polymerase (Hepatitis B virus genotype D subtype ayw, full length); made in house; host or cells: Sf9 insect cells (baculovirus)
Source text: (§2) HIV-1 reverse transcriptase (HIV-1 RT) was purchased from Abcam (cat#ab63979). Recombinant HBV polymerase (Hepatitis B virus genotype D subtype ayw, full length) was cloned using the baculovirus system, expressed in sf9 cells, and purified with similar strategy and methods described by Lanford et al.. A DNA primer (5′-[…]-3′) was synthesized by IDTDNA and a 358-nt RNA template was synthesized in-house using Megascript T7 transcription kit (ThermoFisher, cat#AM1334). dNTPs were purchased from Thermo Fisher and ^3H-dTTP from Perkin Elmer. Filter plates were purchased from Millipore (cat#MABN0V050) and microscint-20 was purchased from Perkin Elmer (cat#6013621).
The RdDp activity of HBV polymerase was measured similarly as described for the HIV-1 RT. To test compound inhibition effect, the reactions were performed at 30 °C for 120 min in a reaction mixture containing reaction buffer (50 mM Tris-Cl, pH 7.5, 100 mM KCl, 12.5 mM MgCl2, 4 mM DTT), 15 µg/mL polymerase, 0.5 µM DNA primer, 0.05 µM RNA template, 10% DMSO, 0.046 µM dATP, 0.057 µM dGTP, 0.017 µM dCTP, 0.32 µM ^3H-dTTP, and compounds at various concentrations.
All data were analyzed with GraphPad Prism. […]

[5] = molecular target: T2, HIV-1 reverse transcriptase (HIV-1 RT) (Human immunodeficiency virus type 1 group M subtype B, UniProt P03366); assay: HIV-1 reverse transcriptase RdDp activity assay; type: biochemical
T2 construct: HIV-1 reverse transcriptase (HIV-1 RT) was purchased from Abcam (cat#ab63979); purchased Abcam ab63979
Source text: as §2
The RNA-dependent DNA polymerization (RdDp) activity of HIV-1 RT was measured by the incorporation of radioactively labeled nucleotides by HIV-1 RT into acid-insoluble DNA products from the DNA primer primed RNA template. To test compound inhibition, the reactions were performed at 30 °C for 40 min in a reaction mixture containing reaction buffer (50 mM Tris-Cl, pH 7.5, 100 mM KCl, 12.5 mM MgCl2, 4 mM DTT), 1 nM HIV-1 RT, 0.1 µM DNA primer, 0.02 µM RNA template, 10% DMSO, 0.1 µM dATP, 1 µM dGTP, 0.1 µM dCTP, 0.32 µM ^3H-dTTP, and compounds at various concentrations. The 50 µL reactions were performed in 96-well plates. The reactions were quenched with a 60 µL cold mixture of 20% (w/v) TCA and 0.5 mM ATP and incubated at 4 °C for 1 h. The reactions were loaded onto 96-well filter plates. The filters on plates were washed three times with 10% TCA and once with 70% ethanol on a Millipore plate wash station with vacuum applied. The filters on the plate were air-dried and 40 μL Microscint-20 was added to each well. The acid-precipitated tritiated DNA products retained on the filters were detected by a Trilux MicroBeta scintillation reader (Perkin Elmer).
All data were analyzed with GraphPad Prism. The compound concentration at which the enzyme-catalyzed rate was reduced by 50% (IC50) was calculated by fitting the data to the equation Y = % Min + (% Max − % Min) / (1 + 10^((logIC50-X)*h)), where Y corresponds to the percent inhibition to the enzyme activity, % Min is the residual inhibition activity without compound, % Max is the maximum inhibition of enzyme activity at saturating compound concentration, and X corresponds to the log of compound concentrations, and h is the hillslope.

HepG2 cells = assay: Cell cytotoxicity against HepG2 cells (CellTiter-Glo, 96 h); type: cell-based, human; settings: at highest tested concentrations; HepG2 and CEM cells (Table 1)
Experimental: as §1

[6] = HepG2 cells, 96 h, read-out: HBV CC50

T1 sequence (P03156 whole entry): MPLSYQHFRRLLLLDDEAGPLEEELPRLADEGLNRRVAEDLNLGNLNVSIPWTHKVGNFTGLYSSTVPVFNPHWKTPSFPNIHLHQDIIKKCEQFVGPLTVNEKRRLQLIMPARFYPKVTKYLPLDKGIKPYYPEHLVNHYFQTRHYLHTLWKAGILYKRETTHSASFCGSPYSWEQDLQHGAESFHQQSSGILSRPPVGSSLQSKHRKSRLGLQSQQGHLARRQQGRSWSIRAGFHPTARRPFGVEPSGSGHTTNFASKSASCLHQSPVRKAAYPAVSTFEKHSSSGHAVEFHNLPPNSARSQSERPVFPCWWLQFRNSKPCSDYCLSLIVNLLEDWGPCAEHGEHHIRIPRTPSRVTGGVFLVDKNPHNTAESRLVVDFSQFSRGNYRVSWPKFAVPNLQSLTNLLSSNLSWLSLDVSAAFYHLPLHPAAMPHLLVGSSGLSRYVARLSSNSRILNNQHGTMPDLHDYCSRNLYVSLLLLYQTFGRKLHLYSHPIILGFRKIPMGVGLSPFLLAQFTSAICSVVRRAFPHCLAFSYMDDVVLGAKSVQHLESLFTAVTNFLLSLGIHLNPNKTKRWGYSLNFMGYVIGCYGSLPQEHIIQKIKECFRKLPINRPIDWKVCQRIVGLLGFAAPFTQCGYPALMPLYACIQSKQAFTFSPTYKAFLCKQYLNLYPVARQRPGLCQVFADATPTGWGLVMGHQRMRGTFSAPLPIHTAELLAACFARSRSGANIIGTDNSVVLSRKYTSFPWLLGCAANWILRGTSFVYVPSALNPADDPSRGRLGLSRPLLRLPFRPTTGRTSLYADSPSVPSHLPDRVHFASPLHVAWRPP

Row | Compound | EC50 [2] [µM] | EC50 (HBV [3]) [µM] | CC50 (in vitro) [µM] | anti-HBV activity (HBV [3]) | cytotoxicity (HepG2 cells) | also measured
1 | Nc1ccn([C@H]2C[C@@](F)(CO)CO2)c(=O)n1 (relative stereo) [Compound 2c] |  |  |  |  |  | EC50 (HBV [1]): 0.011 µM
2 | Nc1nc(=O)n([C@H]2C[C@@](F)(CO)CO2)cc1F (relative stereo) [Compound 2d] |  |  |  |  |  | EC50 (HBV [1]): 0.8 µM
3 | O=c1[nH]c(=O)n([C@H]2C[C@](F)(CO)CO2)cc1I (relative stereo) [Compound 3b] |  |  |  |  |  | EC50 (HBV [1]): 0.8 µM
4 | C=C1[C@H](CO)[C@@H](O)C[C@@H]1n1cnc2c(=O)[nH]c(N)nc21 [Compound 1, entecavir, reference compound] | 1.24 | 0.003 ± 0.0024 |  |  |  | CC50 at 96 h [4]: > 100 µM
5 | C=C1[C@H](COP(=O)(N[C@@H](C)C(=O)OC(C)C)Oc2ccccc2)[C@@H](O)C[C@@H]1n1cnc2c(=O)[nH]c(N)nc21 (some centres unmarked) [Compound 1-PD, reference compound] | > 20 | 0.031 ± 0.02 | > 20 |  |  | CC50 at 96 h [4, 6]: > 10 µM
6 | C=C1[C@H](COP(=O)(O)OP(=O)(O)OP(=O)(O)O)[C@@H](O)C[C@@H]1n1cnc2c(=O)[nH]c(N)nc21 [Compound 1-TP, reference compound] |  |  |  |  |  | IC50 (HBV polymerase): 0.014 ± 0.003 µM; IC50 [5]: 0.32 µM
7 | Nc1ncnc2c1ncn2[C@@H]1OC[C@](F)(CO)[C@H]1O [Compound 4, (2R,3S,4R)-2-(6-Amino-9H-purin-9-yl)-4-fluoro-4-(hydroxymethyl)tetrahydrofuran-3-ol] | > 33 | > 100 | > 33 | Neither 4 nor its prodrug 24 showed any anti-HBV activity | None of the tested apionucleosides 4 and 5 or apionucleoside prodrugs 24 and 39 showed any cytotoxicity | CC50 at 96 h [4]: > 100 µM
8 | Nc1ncnc2c1ncn2[C@@H]1OC[C@](F)(CO)[C@H]1CO [Compound 5, ((2R,3S,4R)-2-(6-Amino-9H-purin-9-yl)-4-fluorotetrahydrofuran-3,4-diyl)dimethanol] | > 33 | > 10 | > 33 | did not show any anti-HBV activity | None of the tested apionucleosides 4 and 5 or apionucleoside prodrugs 24 and 39 showed any cytotoxicity | CC50 at 96 h [4]: > 10 µM
9 | Nc1ncnc2c1ncn2[C@@H]1OC[C@](F)(COP(=O)(O)OP(=O)(O)OP(=O)(O)O)[C@H]1O [Compound 23, ((3S,4S,5R)-5-(6-Amino-9H-purin-9-yl)-3-fluoro-4-hydroxytetrahydrofuran-3-yl)methyl triphosphate] |  |  |  |  |  | IC50 [5]: 4.2 µM
10 | CC(C)OC(=O)[C@H](C)NP(=O)(OC[C@@]1(F)CO[C@@H](n2cnc3c(N)ncnc32)[C@@H]1O)Oc1ccccc1 (stereo partly drawn) [Compound 24, Isopropyl ((((3S,4S,5R)-5-(6-amino-9H-purin-9-yl)-3-fluoro-4-hydroxytetrahydrofuran-3-yl)methoxy)(phenoxy)phosphoryl)-L-alaninate] | > 33 | > 10 | > 33 | Neither 4 nor its prodrug 24 showed any anti-HBV activity | None of the tested apionucleosides 4 and 5 or apionucleoside prodrugs 24 and 39 showed any cytotoxicity | CC50 at 96 h [4, 6]: > 10 µM
11 | CC(C)OC(=O)[C@H](C)NP(=O)(OC[C@@]1(F)CO[C@@H](n2cnc3c(N)ncnc32)[C@@H]1CO)Oc1ccccc1 (stereo partly drawn) [Compound 39, Isopropyl ((((3S,4S,5R)-5-(6-amino-9H-purin-9-yl)-3-fluoro-4-(hydroxymethyl)tetrahydro-furan-3-yl)methoxy)(phenoxy)phosphoryl)-L-alaninate] | 0.3 | 0.0078 ± 0.0035 | > 33 | strong inhibition of HBV | None of the tested apionucleosides 4 and 5 or apionucleoside prodrugs 24 and 39 showed any cytotoxicity | anti-HIV activity [2]: showed anti-HIV activity; CC50 at 96 h [4, 6]: > 10 µM

Source: publication PMC9025269, “Synthesis and Anti-Hepatitis B Activities of 3′-Fluoro-2′-Substituted Apionucleosides” (Molecules, 2022)
